Measured values published in patent publication US6642392B1 (priority 1997, dated 2003).
Like-named read-outs stand apart in the source and are kept apart here.

Tests used:
Format in all cases: in vivo
Phytophthora infestans = conditions: for Test D disease control rating (100 = 100% disease control, 0 = no disease control): tomato seedlings sprayed to run-off, inoculated the following day, rating relative to controls, unmarked compounds (standard test rate); for Test D disease control rating: tomato late blight
[1] = tested on: Eiysiphe graminis f. sp. tritici; assay: Test A: wheat powdery mildew, preventive spray on wheat seedlings; conditions: for Test A disease control rating (100 = 100% disease control, 0 = no disease control): wheat seedlings sprayed to run-off, inoculated the following day, rating relative to controls, unmarked compounds (standard test rate); for Test A disease control rating: wheat powdery mildew
How it was run: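 Compounds (3% acetone, 250 ppm Trem 014) sprayed to run-off on wheat seedlings, inoculated next day with spore dust. Incubated 7 days at 20° C before disease rating, 0–100% control relative to untreated controls.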

Botrytis cinerea = assay: Test E: gray mold, preventive spray on cucumber seedlings; conditions: for Test E disease control rating (100 = 100% disease control, 0 = no disease control): cucumber seedlings sprayed to run-off, inoculated the following day, rating relative to controls, unmarked compounds (standard test rate); for Test E disease control rating: gray mold on cucumber
How it was run: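 Compounds in 3% acetone were suspended with 250 ppm Trem 014 surfactant and sprayed to run-off on cucumber seedlings. B. cinerea spores were inoculated next day, then 48 h saturated humidity at 20° C and 5 days at 20° C. Disease control rated 0–100% versus controls.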

Pyricularia oryzae = conditions: for Test C disease control rating (100 = 100% disease control, 0 = no disease control): rice seedlings sprayed to run-off, inoculated the following day, rating relative to controls, unmarked compounds (standard test rate); for Test C disease control rating: rice blast
Puccinia recondita = assay: Test B: wheat leaf rust, preventive spray on wheat seedlings; conditions: for Test B disease control rating (100 = 100% disease control, 0 = no disease control): wheat seedlings sprayed to run-off, inoculated the following day, rating relative to controls, unmarked compounds (standard test rate); for Test B disease control rating: wheat leaf rust
How it was run: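 Wheat seedlings were sprayed to run-off with compound (3% acetone, 250 ppm Trem 014), then inoculated with P. recondita spores the next day. They were held 24 h saturated at 20 °C, then 6 days at 20 °C. Ratings are 0–100% disease control versus controls.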

[2] = 100 = 100% disease control, 0 = no control, unmarked entries (standard test concentration)
[3] = 100 = 100% disease control, 0 = no control relative to controls, unmarked entries (standard test concentration)

| Structure (SMILES) | Test D disease control rating (Phytophthora infestans; [2]) | Test A disease control rating [1, 3] | Test E disease control rating (Botrytis cinerea; [2]) | Test C disease control rating (Pyricularia oryzae; [2]) | Test B disease control rating (Puccinia recondita; [2]) | also measured |
| --- | --- | --- | --- | --- | --- | --- |
| CCC1(C(=O)NC(C)COc2ccc(Cl)c(F)c2)C(C)C1(Cl)Cl (stereo not shown) [compound 231] | – | – | – | – | – | Test D disease control rating (100 = 100% disease control, 0 = no disease control) (Phytophthora infestans): 0%; Test A disease control rating (100 = 100% disease control, 0 = no disease control) [1]: 0%; Test E disease control rating (100 = 100% disease control, 0 = no disease control) (Botrytis cinerea): 93%; Test C disease control rating (100 = 100% disease control, 0 = no disease control) (Pyricularia oryzae): 97%; Test B disease control rating (100 = 100% disease control, 0 = no disease control) (Puccinia recondita): 0% |
| CC(COc1ccccc1Br)NC(=O)C(C#N)C(C)(C)C (mixture of isomers) [8a] | 0% | 0% | 7% | 85% | 0% | – |
| CC(C)(C)C(C#N)C(=O)NC/C=C/c1ccccc1F (racemic) [compound 178] | 0% | 0% | 58% | 53% | 0% | – |
| CCC1(C(=O)NCCCn2cccc2C#N)C(C)C1(Cl)Cl (stereo not shown) [compound 149] | 0% | 30% | 0% | 53% | 27% | – |
| CCC1(C(=O)NC(C)COc2ccc(Cl)cc2Cl)C(C)C1(Cl)Cl (stereo not shown) [compound 112] | – | – | – | – | – | Test D disease control rating (Phytophthora infestans; tested at 40 ppm): 0%; Test A disease control rating ([1]; tested at 40 ppm): 71%; Test E disease control rating (Botrytis cinerea; tested at 40 ppm): 0%; Test C disease control rating (Pyricularia oryzae; tested at 40 ppm): 0%; Test B disease control rating (Puccinia recondita; tested at 40 ppm): 0% |
| C[C@H](COc1cc(Cl)cc(Cl)c1Cl)NC(=O)C(C#N)C(C)(C)C (single isomer, unassigned) [170a] | 0% | 35% | 58% | 53% | 0% | – |
| C[C@H](COc1ccc(Cl)c(F)c1)NC(=O)C(C#N)C(C)(C)C (single isomer, unassigned) [182b] | 0% | 0% | 0% | 94% | 68% | – |
| CCC1(C(=O)NC(C)COc2cc(F)cc(F)c2F)C(C)C1(Cl)Cl (stereo not shown) [compound 109] | – | – | – | – | – | Test D disease control rating (Phytophthora infestans; tested at 40 ppm): 0%; Test A disease control rating ([1]; tested at 40 ppm): 52%; Test E disease control rating (Botrytis cinerea; tested at 40 ppm): 0%; Test C disease control rating (Pyricularia oryzae; tested at 40 ppm): 53%; Test B disease control rating (Puccinia recondita; tested at 40 ppm): 0% |
| C[C@H](COc1cccc(C(F)(F)F)c1)NC(=O)C(C#N)C(C)(C)C (single isomer, unassigned) [18b] | 0% | 77% | 0% | 94% | 0% | – |
| CCC1(C(=O)NC(C)COc2c(F)cccc2C#N)C(C)C1(Cl)Cl (mixture of isomers) [compound 128] | 13% | 86% | 0% | 74% | 0% | – |
| CC(COc1ccccc1)NC(=O)C(C#N)C(C)(C)C (single isomer, unassigned) [1c] | 16% | 60% | 0% | 73% | 85% | – |
| CC(COc1cccc(F)c1C#N)NC(=O)C(C#N)C(C)C(C)(C)C (mixture of isomers) [compound 63] | 2% | 0% | 0% | 0% | 0% | – |
| CCC1(C(=O)NC(C)COc2c(Cl)cc(F)cc2Cl)C(C)C1(Cl)Cl (stereo not shown) [compound 251] | – | – | – | – | – | Test D disease control rating (100 = 100% disease control, 0 = no disease control) (Phytophthora infestans): 0%; Test A disease control rating (100 = 100% disease control, 0 = no disease control) [1]: 0%; Test E disease control rating (100 = 100% disease control, 0 = no disease control) (Botrytis cinerea): 0%; Test C disease control rating (100 = 100% disease control, 0 = no disease control) (Pyricularia oryzae): 94%; Test B disease control rating (100 = 100% disease control, 0 = no disease control) (Puccinia recondita): 0% |
| C[C@H](COc1c(Cl)ccc(Cl)c1Cl)NC(=O)C(C#N)C(C)(C)C (single isomer, unassigned) [171b] | 0% | 91% | 58% | 53% | 0% | – |
| CC(COc1ccccc1)NC(=O)C(C#N)C(C)(C)C (single isomer, unassigned) [1b] | 0% | 34% | 0% | 74% | 11% | – |
| CC(COc1ccccc1Br)NC(=O)C1(C)CC1(Cl)Cl (mixture of isomers) [compound 313] | – | – | – | – | – | Test D disease control rating (100 = 100% disease control, 0 = no disease control) (Phytophthora infestans): 32%; Test A disease control rating (100 = 100% disease control, 0 = no disease control) [1]: 0%; Test E disease control rating (100 = 100% disease control, 0 = no disease control) (Botrytis cinerea): 47%; Test C disease control rating (100 = 100% disease control, 0 = no disease control) (Pyricularia oryzae): 26%; Test B disease control rating (100 = 100% disease control, 0 = no disease control) (Puccinia recondita): 0% |
| CC(C)C(C#N)C(=O)NC(C)C(Oc1ccccc1C#N)c1ccccc1 (mixture of isomers) [compound 290] | – | – | – | – | – | Test D disease control rating (100 = 100% disease control, 0 = no disease control) (Phytophthora infestans): 0%; Test A disease control rating (100 = 100% disease control, 0 = no disease control) [1]: 59%; Test E disease control rating (100 = 100% disease control, 0 = no disease control) (Botrytis cinerea): 0%; Test C disease control rating (100 = 100% disease control, 0 = no disease control) (Pyricularia oryzae): 90%; Test B disease control rating (100 = 100% disease control, 0 = no disease control) (Puccinia recondita): 0% |
| CCc1ccccc1OCC(C)NC(=O)C1(CC)C(C)C1(Cl)Cl (stereo not shown) [97b] | – | – | – | – | – | Test D disease control rating (Phytophthora infestans; tested at 40 ppm): 0%; Test A disease control rating ([1]; tested at 40 ppm): 71%; Test E disease control rating (Botrytis cinerea; tested at 40 ppm): 0%; Test C disease control rating (Pyricularia oryzae; tested at 40 ppm): 53%; Test B disease control rating (Puccinia recondita; tested at 40 ppm): 0% |
| C[C@H](COc1cc(F)c(F)cc1F)NC(=O)C(C#N)C(C)(C)C (single isomer, unassigned) [188a] | 56% | 0% | 0% | 97% | 0% | – |
| CCC1(C(=O)NC(C)COc2cccc(CF)c2)C(C)C1(Cl)Cl (mixture of isomers) [compound 102] | – | – | – | – | – | Test D disease control rating (Phytophthora infestans; tested at 40 ppm): 0%; Test A disease control rating ([1]; tested at 40 ppm): 60%; Test E disease control rating (Botrytis cinerea; tested at 40 ppm): 0%; Test C disease control rating (Pyricularia oryzae; tested at 40 ppm): 0%; Test B disease control rating (Puccinia recondita; tested at 40 ppm): 0% |
| CC(C)(C)C(C#N)C(=O)NC/C=C/c1cccc(Cl)c1 (racemic) [compound 180] | 76% | 61% | 0% | 74% | 0% | – |
| CCC1(C(=O)NCCCn2cccc2Cl)C(C)C1(Cl)Cl (stereo not shown) [compound 146] | 0% | 0% | 0% | 0% | 22% | – |
| C[C@H](COc1cccc(Cl)c1)NC(=O)C(C#N)C(C)(C)C (single isomer, unassigned) [6d] | 0% | 77% | 0% | 97% | 28% | – |
